# In patent US10173991B2, “Sulfone amide linked benzothiazole inhibitors of endothelial lipase” (BRISTOL-MYERS SQUIBB COMPANY, priority 2014, dated 2019):
# Molecular target: Endothelial lipase (EL) (Homo sapiens (Human), UniProt Q9Y5X9)
# Test: Endothelial lipase (EL) enzymatic assay with fluorescent substrate A10070 in DMPG vesicles
# Format: biochemical
# In short: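 EL from conditioned medium of HT-1080 cells engineered to overexpress endogenous EL; HL partially purified from conditioned medium of HL-overexpressing COS cells. Enzyme preincubated with compound 30 min at 37° C in 50 mM HEPES pH 8.0, 50 mM NaCl, 1 mM CaCl2; DMPG vesicles carrying FRET substrate (0.11 mole fraction) then added.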
# Endothelial lipase (EL), sequence (Q9Y5X9 21-500): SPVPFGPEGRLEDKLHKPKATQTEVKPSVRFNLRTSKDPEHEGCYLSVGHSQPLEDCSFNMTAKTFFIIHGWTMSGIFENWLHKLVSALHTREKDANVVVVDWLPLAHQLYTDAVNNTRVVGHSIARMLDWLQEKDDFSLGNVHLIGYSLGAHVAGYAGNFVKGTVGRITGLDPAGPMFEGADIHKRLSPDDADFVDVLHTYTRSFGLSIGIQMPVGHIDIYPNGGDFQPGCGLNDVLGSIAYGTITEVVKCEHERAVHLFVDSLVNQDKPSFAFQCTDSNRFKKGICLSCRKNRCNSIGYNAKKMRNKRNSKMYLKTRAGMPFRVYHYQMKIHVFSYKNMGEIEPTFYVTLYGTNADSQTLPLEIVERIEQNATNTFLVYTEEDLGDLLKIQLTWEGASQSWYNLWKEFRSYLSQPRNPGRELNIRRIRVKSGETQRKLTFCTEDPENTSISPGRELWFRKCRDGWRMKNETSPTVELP
row,SMILES,IC50 [nM]
1,"Cc1ncc(-c2cc3sc(C(C(=O)NCC(=O)NC4CC4)S(=O)(=O)C(C)C)nc3cc2C)cn1 (stereo not drawn) [Example 212, N-[(cyclopropyl-carbamoyl)methyl]-2-[5-methyl-6-(2-methylpyrimidin-5-yl)-1,3-benzothiazol-2-yl]-2-(propane-2-sulfonyl) acetamide]",15
2,"COCCS(=O)(=O)C(C(=O)NCC(=O)NC1CC1)c1nc2ccc(-c3ccc(N(C)C(C)=O)cc3)cc2s1 (stereo not drawn) [Example 27, N-[(cyclopropyl-carbamoyl)methyl]-2-(2-methoxy-ethanesulfonyl)-2-{6-[4-(N-methylacetamido)phenyl]-1,3-benzothiazol-2-yl}acetamide]",58
3,"COCCS(=O)(=O)C(C(=O)NCC(=O)NC1CC1)c1nc2cc(F)c(-c3ccc(NC(=O)OCc4ccccn4)cc3)cc2s1 (stereo not drawn) [Example 519, pyridin-2-ylmethyl N-{4-[2-({[(cyclopropyl-carbamoyl)methyl]carbamoyl}(2-methoxyethane-sulfonyl)methyl)-5-fluoro-1,3-benzothiazol-6-yl]phenyl}carbamate]",2
4,"COC(=O)Nc1ccc(-c2ccc3nc(C(C(=O)NCC(=O)NC4CC4)S(C)(=O)=O)sc3c2)c(C)c1 (stereo not drawn) [Example 29, methyl N-{4-[2-({[(cyclopropyl-carbamoyl)methyl]carbamoyl} (methanesulfonyl)methyl)-1,3-benzothiazol-6-yl]-3-methylphenyl} carbamate]",20
5,"COCCS(=O)(=O)C(C(=O)NCC(=O)NC1CC1)c1nc2ccc(-c3ccc(C(N)=O)cc3)cc2s1 (stereo not drawn) [Example 329, 4-[2-({[(cyclopropyl-carbamoyl)methyl]carbamoyl}(2-methoxyethane-sulfonyl)methyl)-1,3-benzothiazol-6-yl]benzamide]",46
6,CC(=O)Nc1cccc(-c2ccc3nc(C(C(=O)NCC(=O)NC4CC4)S(=O)(=O)Cc4cccc(C#N)c4)sc3c2)c1 (stereo not drawn) [Example 279],89
7,"Cc1cc2nc(C(C(=O)NCC(=O)NC3CC3)S(=O)(=O)C(C)C)sc2cc1-c1ccc2c(c1)C(=O)NC2 (stereo not drawn) [Example 258, N-[(cyclopropyl-carbamoyl)methyl]-2-[5-methyl-6-(3-oxo-2,3-dihydro-1H-isoindol-5-yl)-1,3-benzothiazol-2-yl]-2-(propane-2-sulfonyl) acetamide]",19
8,"CCS(=O)(=O)C(C(=O)NCC(=O)NC1CC1)c1nc2cc(F)c(-c3ccc(NC(=O)OCc4ccccc4)cc3)cc2s1 (stereo not drawn) [Example 45, benzyl N-{4-[2-({[(cyclopropyl-carbamoyl)methyl]carbamoyl} (ethanesulfonyl)methyl)-5-fluoro-1,3-benzothiazol-6-yl]phenyl} carbamate]",3

# More lines, now with the values ahead:
row,IC50 [nM],SMILES
1,77,"Cn1ccc(-c2cc(F)c3nc(C(C(=O)NCC(=O)NC4CC4)S(=O)(=O)c4ccc(F)cc4)sc3c2)cc1=O (stereo not drawn) [Example 473, N-[(cyclopropyl-carbamoyl)methyl]-2-[4-fluoro-6-(1-methyl-2-oxo-1,2-dihydropyridin-4-yl)-1,3-benzothiazol-2-yl]-2-(4-fluorobenzene-sulfonyl)acetamide]"
2,97,"COCCS(=O)(=O)C(C(=O)NCC(=O)NC1CC1)c1nc2cc(-c3ccc(-c4nnn[nH]4)cc3)c(F)cc2s1 (stereo not drawn) [Example 128, N-[(cyclopropyl-carbamoyl)methyl]-2-{6-fluoro-5-[4-(1H-1,2,3,4-tetrazol-5-yl)phenyl]-1,3-benzothiazol-2-yl}-2-(2-methoxyethane-sulfonyl) acetamide]"
3,13,"COCCNC(=O)c1ccc(-c2ccc3nc(C(C(=O)NCC(=O)NC4CC4)S(=O)(=O)CCOC)sc3c2)cc1 (stereo not drawn) [Example 306, 4-[2-({[(cyclopropyl-carbamoyl)methyl]carbamoyl}(2-methoxyethane-sulfonyl)methyl)-1,3-benzothiazol-6-yl]-N-(2-methoxyethyl) benzamide]"
4,7,"Cc1cc2nc(C(C(=O)NCC(=O)NC3CC3)S(=O)(=O)C(C)C)sc2cc1-c1ccc2cnn(C)c2c1 (stereo not drawn) [Example 260, N-[(cyclopropyl-carbamoyl)methyl]-2-[5-methyl-6-(1-methyl-1H-indazol-6-yl)-1,3-benzothiazol-2-yl]-2-(propane-2-sulfonyl)acetamide]"
